The target in this test is T1, P2Y receptor (turkey erythrocyte membranes) (Meleagris gallopavo, UniProt P49652).
T1 construct: from tissue; host or cells: washed turkey erythrocytes, ghosts prepared by hypotonic lysis
Put plainly: Stimulation of phospholipase C (inositol phosphate formation) in turkey erythrocyte membranes. Type of test: biochemical. Particulars: turkey erythrocyte membranes. On the procedure:
Phospholipase C activity: Stimulation of inositol phosphate formation by compounds of the present invention was measured in turkey erythrocyte membranes as described by Harden et al., supra and Boyer et al., supra. The K0.5 values were averaged from 3-8 independently determined dose-response curves for each compound. Briefly, one ml of washed turkey erythrocytes was incubated in inositol-free medium (DMEM; Gibco) with 0.5-1 mCi of 2-[^3 H]myoinositol (20 Ci/mmol; American Radiolabeled Chemicals Inc., St. Louis, Mo.)for 18-24 h in a humidified atmosphere of 95% air 5% CO2 at 37° C. Erythrocyte ghosts were prepared by rapid lysis in hypotonic buffer (5 mM sodium phosphate, pH 7.4, 5 mM MgCl2, 1 mM EGTA) as described by Boyer et al., supra. Phospholipase C activity was measured in 25 μl of [^3 H]inositol-labeled ghosts (≈175 μg of protein, 200-500,000 cpm/assay) in a medium containing 424 μM CaC12, 0.91 mM MgSO4, 2 mM EGTA, 115 mM KCl, 5 mM KH2 PO4, and 10 mM Hepes, pH 7.0. Assay (100 μl or 200 μl final volume) contained 1 μM GTPγS and the indicated concentrations of nucleotide analogs. Ghosts were incubated at 30° C. for 5 min, and total [^3 H]inositol phosphates were quantitated after purification by anion exchange chromatography according to Harden et al. (supra) and Boyer et al. (supra).
Phospholipase C activity and muscle relaxation/contraction effects were assessed using the methods recited in Example 3. In FIGS. 10-12, which present the result of assays of phospholipase C activity in turkey erythrocyte membranes, the x-axis is marked in units of the log of the molar concentration of the putative P2Y receptor agonist tested and the y-axis is marked in units of the percentage of maximum production of [^3 H]-inositol phosphate generated. In FIG. 13, the x-axis is marked in units of the negative log of the molar concentration of applied putative P2Y receptor agonists and the y-axis is marked in units of the percentage relaxation of the 50 nM carbachol-induced contraction of guinea pig taenia coli. In FIG. 14, the x-axis is also marked in units of the negative log of the molar concentration of applied putative P2Y receptor agonists and the y-axis is marked in units of the percentage relaxation of the 1 μM noradrenalin-induced contraction of rabbit aorta endothelium. In FIGS. 15-16, the x-axis is marked in units of the negative log of the molar concentration of applied putative p^2X receptor agonists and the y-axis is marked in units of the percentage contraction relative to a standard dose of KCl (i.e., 60 mM), as assessed in guinea pig isolated urinary bladder detrussor muscle (FIG. 15) and guinea pig isolated vas deferens (FIG. 16).

[1] abbreviates: mean ± S.E.M. for at least 2 determinations, read-out: phosphatidyl inositol metabolism (K0.5, nM) erythrocyte.

We go through 14 compounds from patent US5620676A, “Biologically active ATP analogs” (priority 1995, dated 1997).

Like-named read-outs stand apart in the source and are kept apart here.

T1 sequence (P49652 whole entry): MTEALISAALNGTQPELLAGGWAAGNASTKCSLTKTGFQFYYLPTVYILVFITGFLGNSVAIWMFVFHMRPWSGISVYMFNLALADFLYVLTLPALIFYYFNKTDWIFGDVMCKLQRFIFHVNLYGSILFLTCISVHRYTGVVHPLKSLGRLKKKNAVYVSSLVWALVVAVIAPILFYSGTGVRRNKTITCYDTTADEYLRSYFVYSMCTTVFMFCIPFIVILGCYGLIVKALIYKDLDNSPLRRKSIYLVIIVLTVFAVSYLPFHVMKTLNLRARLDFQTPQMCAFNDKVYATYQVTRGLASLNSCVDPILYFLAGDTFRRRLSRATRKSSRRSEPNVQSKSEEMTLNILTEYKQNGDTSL

Consider `CCSCCSc1nc(N)c2ncn([C@@H]3O[C@H](COP(=O)(O)O)[C@@H](O)[C@H]3O)c2n1`, for which the EC50 under setting [1] was found to be 1000 nM.

With `Cn1c(=O)c2c(ncn2C)n(CCOP(=O)(O)OP(=O)(O)OP(=O)(O)O)c1=O` [1,7-dimethyl-3-(2-hydroxyethyl)xanthine triphosphate], under “read-out: K0.5”, the EC50 is 100000 nM.

As for `Nc1ccc(CCSc2nc(N)c3ncn([C@@H]4O[C@H](COP(=O)(O)OP(=O)(O)OP(=O)(O)O)[C@@H](O)[C@H]4O)c3n2)cc1` [2-(2-p-Aminophenylethyl)-thio-ATP, 2-[2-(p-Aminophen)ethylthio]adenosine 5'-triphosphate], the “activity/potency in words, turkey erythrocyte” value was “at least two orders of magnitude more potent”. Under setting [1], the EC50 was 1.53 ± 0.21 nM. Further, the EC50 (read-out: K0.5) is 5 to 30 nM.

As to `NCCCCCCCSc1nc(N)c2ncn([C@@H]3O[C@H](COP(=O)(O)OP(=O)(O)OP(=O)(O)O)[C@@H](O)[C@H]3O)c2n1` [2-(7-Aminoheptyl)thio-ATP, 2-(7-Aminoheptylthio)-adenosine-5'-triphosphate], the EC50 under setting [1] is 72.8 ± 46.6 nM. Still for that read-out and setting: the result for `Nc1nc(SCCCCCCCS)nc2c1ncn2[C@@H]1O[C@H](COP(=O)(O)OP(=O)(O)OP(=O)(O)O)[C@@H](O)[C@H]1O` [2-(7-Thioheptyl)thio-ATP, 2-(7-Thioheptylthio)-adenosine-5'-triphosphate] reads 773 ± 328 nM. For the compound `N#CSCCCCCCCSc1nc(N)c2ncn([C@@H]3O[C@H](COP(=O)(O)OP(=O)(O)OP(=O)(O)O)[C@@H](O)[C@H]3O)c2n1` [2-[(7-Thiocyanatoheptyl)thio]-ATP, 2-(7-Thiocyanatoheptylthio)-adenosine-5'-triphosphate], the “activity/potency in words, turkey erythrocyte” value is listed as “at least two orders of magnitude more potent”. In addition, the EC50 under setting [1] came out at 25.9 ± 10 nM. Besides, the EC50 (read-out: K0.5) lay in the range of 5 to 30 nM. With `CCCCCCCCCCSc1nc(N)c2ncn([C@@H]3O[C@H](COP(=O)(O)O)[C@@H](O)[C@H]3O)c2n1` [2-decylthio AMP], under setting [1], the EC50 amounted to 214 ± 2 nM.

For the compound `CCCCCCCSc1nc(N)c2ncn([C@@H]3O[C@H](COP(=O)(O)O)[C@@H](O)[C@H]3O)c2n1` [2-hepylthio AMP], under setting [1], the EC50 amounted to 1000 nM. On the same count and under the same terms, then `CCCCCCSc1nc(N)c2ncn([C@@H]3O[C@H](COP(=O)(O)O)[C@@H](O)[C@H]3O)c2n1` [2-hexylthio AMP], with 58 ± 5 nM; and `CCCCCCCCSc1nc(N)c2ncn([C@@H]3O[C@H](COP(=O)(O)O)[C@@H](O)[C@H]3O)c2n1` [2-octylthio AMP], with 295 ± 6 nM.

On to `CCCCCSc1nc(N)c2ncn([C@@H]3O[C@H](COP(=O)(O)O)[C@@H](O)[C@H]3O)c2n1` [2-pentylthio AMP], for which the EC50 under setting [1] was 10000 nM. Same read-out and setting: then `CCCCCCCCCCCSc1nc(N)c2ncn([C@@H]3O[C@H](COP(=O)(O)O)[C@@H](O)[C@H]3O)c2n1` [2-undecylthio AMP], with 1000 nM; and `O=P(O)(O)OP(=O)(O)OP(=O)(O)OC[C@H]1O[C@@H](n2cnc3c(NCCc4ccccc4)ncnc32)[C@H](O)[C@@H]1O` [N^6 -phenylethyl ATP, N^6 -phenylethyl-ATP], with 7000 nM.

As for `Cn1c(=O)c2c(ncn2CCOP(=O)(O)OP(=O)(O)OP(=O)(O)O)n(C)c1=O` [β-Hydroxyethyltheophylline triphosphate], the EC50 (read-out: K0.5) was 26900 nM.
